Non-standard residues stand in square brackets, D forms with d. Residues, ends and D or L forms follow the SMILES beside them. *: point of attachment. Octanoyl = CCCCCCCC(=O)*
Key:
[1] = Stability of conjugates in Simulated Intestinal Fluid (SIF); format: in vitro ADME; conditions: simulated intestinal fluid pH 6.7 with pancreatin, 1 μM, 37° C.
Procedure, shortened: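 Conjugates at 1 μM (from 1 mM DMSO stock) were incubated with agitation at 37° C. in freshly made SIF: FaSSIF powder plus pancreatin in pH 6.7 phosphate buffer. Aliquots taken at T0 and at regular intervals were quenched with 1 volume acetonitrile, and LC/MS gave degradation rates.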

[2] = test system: E. coli CFT073 ATCC 700928 and/or E. coli Nissle 1917; experiment: Cell-based assay with ClbP with LCMS, ClbP positive strain; conditions: for % Remaining in ClbP Positve Relative to Media-Only: ClbP-encoding E. coli, 10 μM compound, 37° C., 20 h
Procedure, shortened: (§1)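 Compound (10 μM final) incubated 20 h at 37° C, aerobically, with 1:40-diluted overnight cultures of ClbP-positive E. coli or negative BL21(DE3), in duplicate, alongside uninoculated LB. Remaining parent quantified by LC-MS/MS (MRM) after acetonitrile quench, expressed as percent of media-alone.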

[3] = In vitro Colonic Material Stability Assay; format: in vitro ADME; conditions: for Assay 3 (% Remaining at 24 h): colonic material slurry, anaerobic, 1 or 10 μM
Procedure, shortened: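 Compounds were added at 1 or 10 μM final to colonic material slurry (6.7 μL of 15% w/v slurry per 1 mL YCFAC or similar medium). Samples taken at 0–2880 min were acetonitrile-quenched and the remaining compound quantified by LC/MS.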

E. coli BL21(DE3) = experiment: Cell-based assay with ClbP with LCMS, ClbP negative strain; conditions: 10 μM compound, 37° C., 20 h
Procedure, shortened: as §1

Compound	Assay 2 (SIF) (% @ Remaining 4 hours) [1]	% Remaining in ClbP Positve Relative to Media-Only [2]	Assay 3 (% Remaining at 24 h) [3]	Selective delivery to the colon (conclusion from Table 2) ([3]; from SGF, SIF and colonic material stability)	% Remaining in ClbP Negative Relative to Media-Only (E. coli BL21(DE3))	Difference between the ClbP Positive and ClbP Negative release profiles ([2]; conclusion from Table 4)
CCCCCCCCCCCCCC(=O)N[C@H](CC(N)=O)C(=O)NCCCC(=O)OC [Example 20, Methyl (R)-4-(4-amino-4-oxo-2-tetradecanamidobutanamido)butanoate]	B (25-75% of the tested compound remaining)	+ (between 25-75% compound remaining in the 20 μM WT ClbP reaction relative to the no-enzyme control)	A (<25% of the tested compound remaining)	can be selectively delivered to the colon	− (>75% compound remaining in the 20 μM WT ClbP reaction relative to the no-enzyme control)	
CCCCCCCC(=O)N[C@H](CC(N)=O)C(=O)N[C@H](C)C(=O)OC [Example 5, Methyl octanoyl-D-asparaginyl-D-alaninate] (Octanoyl-[dN]-[dA]-OMe)	C (>75% of the tested compound remaining)	++ (<25% compound remaining in the 20 μM WT ClbP reaction relative to the control)	C (>75% of the tested compound remaining)		− (>75% compound remaining in the 20 μM WT ClbP reaction relative to the no-enzyme control)	particularly favorable difference
CCCCCCCC(=O)N[C@H](CC(N)=O)C(=O)N[C@@H](CC(C)C)C(=O)OC [Example 7, Methyl octanoyl-D-asparaginyl-L-leucinate] (Octanoyl-[dN]-Leu-OMe)	A (<25% of the tested compound remaining)	+ (between 25-75% compound remaining in the 20 μM WT ClbP reaction relative to the no-enzyme control)	A (<25% of the tested compound remaining)		+ (between 25-75% compound remaining in the 20 μM WT ClbP reaction relative to the no-enzyme control)	
CCCCCCCC(=O)N[C@H](CCC(N)=O)C(=O)N[C@@H](C)C(=O)OC [Example 10, Methyl octanoyl-D-glutaminyl-L-alaninate] (Octanoyl-[dQ]-Ala-OMe)	C (>75% of the tested compound remaining)	+ (between 25-75% compound remaining in the 20 μM WT ClbP reaction relative to the no-enzyme control)	C (>75% of the tested compound remaining)		+ (between 25-75% compound remaining in the 20 μM WT ClbP reaction relative to the no-enzyme control)	
